Experimental data from patent publication US10835500B2, “Medicament for accelerated wound healing” (Symrise AG, priority 2014, dated 2020).

Key:
[1] = target: T1, recombinantly expressed OR2AT4 (Homo sapiens, UniProt A6NND4); experiment: Calcium imaging of transiently OR2AT4-transfected Hana3A cells; format: cell-based; conditions: for response rate of the Hana3A cells relative to the Ringer control: 1 mM odorant, 20 s stimulation, OR2AT4-transfected Hana3A cells
T1 construct: expressed in transfected cells; host or cells: Hana3A cells, transient transfection with pcDNA3-OR2AT4 by the calcium phosphate method
T1 sequence (A6NND4 1-320): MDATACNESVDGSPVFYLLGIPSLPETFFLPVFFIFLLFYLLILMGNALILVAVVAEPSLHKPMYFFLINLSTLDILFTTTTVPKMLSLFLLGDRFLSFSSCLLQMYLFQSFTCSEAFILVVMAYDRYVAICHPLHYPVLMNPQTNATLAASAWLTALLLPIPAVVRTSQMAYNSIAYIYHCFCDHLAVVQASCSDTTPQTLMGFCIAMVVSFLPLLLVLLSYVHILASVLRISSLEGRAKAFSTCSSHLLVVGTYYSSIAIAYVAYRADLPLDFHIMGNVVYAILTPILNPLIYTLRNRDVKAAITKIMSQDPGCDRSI
Protocol: Hana3A cells expressing stable endogenous olfactory transduction factors, which specifically target the incorporation of ORs into the cell membrane and thus improve activation capacity, were used as a heterologous expression system. Moreover, the 20 first N-terminal amino acids of rhodopsins (Rho-tag) were added before the N-terminus of the coding sequence of the OR, also in order to support heterologous expression.
A method established at the Department of Cell Physiology of Ruhr University Bochum for deorphanization studies is calcium imaging, in which activation of an OR by an odorant is visualized by a change in the intracellular calcium concentration of transfected cells using a fluorescent dye [cf. Wetzel et al. in: J. Neurosci. 19, pp. 7426-7433 (1999); Spehr et al. in: Science 299, pp. 2054-2058 (2003); Neuhaus et al. in: J. Biol. Chem. 284, pp. 16218-16225 (2009)]. In this method, the Hana3A cells are briefly (20 s) stimulated with an odorant and selected for odorant screenings of high concentrations (up to 1 mM) in order to confirm activation of ORs weakly expressed in Hana3A cells.
The activation of OR2AT4 by Sandalore® was first investigated by the calcium imaging method.
Odorants can not only activate a receptor, but can also act as antagonists to an OR.
(§1) Determination of receptive field of recombinantly expressed OR2AT4. […] As a control, untransfected Hana3A cells were simulated with Sandalore®. 100 μM of ATP was used at the end of each measurement as a positive control stimulus. […] The mean response rate including standard error of the cells is shown relative to the Ringer control. […] Isobornyl.: isobornyl cyclohexanol; S. öl: sandalwood oil. Kruskal-Wallis test with multiple comparison. *: p<0.05. […] Significance was determined between Hana3A cells transfected with OR2AT4-pcDNA3 and pcDNA3 without an insert. The dots show mean normalized luciferase-activity including standard error. Mann-Whitney U test; n=3 experiments. *: p<0.05; **: p<0.01; ***: p<0.001.
Antagonists of recombinantly expressed OR2AT4. […] 100 μM of ATP was used at the end of each measurement as a positive control stimulus. […] The mean response rate including standard error of the cells is shown relative to the Ringer control. Number of measurements: Ringer (23), Sandalore® (22), Sandalore®+dimetol (11), dimetol (11), Phenirat (14), Sandalore®+Phenirat (22), Oxyphenylon (12), and Sandalore®+Oxyphenylon (20). S: Sandalore®. Kruskal-Wallis test with multiple comparison. *: p<0.05.

[2] = target: T1, recombinantly expressed OR2AT4; experiment: CRE dual luciferase assay in OR2AT4-transfected Hana3A cells; format: cell-based; conditions: up to the highest useable concentrations 10-25 μM
Text: In order to verify calcium imaging results and investigate dose-dependent activation of OR2AT4, a further method of deorphanization based on a dual luciferase system was used. In this method, in addition to the OR, two luciferases were introduced into the Hana3A cells. When the expressed OR is activated by an odorant and cAMP is formed in the further course of the signal cascade, this initiates expression of firefly luciferase via CRE (cAMP response elements). The second luciferase, Renilla luciferase, serves as a control for transfection and vitality of the cells. By calculating the two luciferase values, the activation capacity of an OR by an odorant can be determined. In the CRE luciferase assay, the odorant remains on the cells for hours in order to ensure that the luciferase is expressed. Because of the longer incubation time of the odorants and the possibility of activating more receptors in a 96-well format, this method is more sensitive than calcium imaging and is well-suited for establishing dose-response relationships.
For Brahmanol, however, a higher concentration (≥75 μM) was required than for Sandalore® (≥25 μM) in order to produce a significant effect at the receptor (FIG. 3c).
as §1

HaCaT cells = experiment: Calcium imaging in HaCaT cells; format: cell-based, human; conditions: for effect of blocker on Sandalore-induced calcium signals: HaCaT cells, EGTA 10 mM calcium-free, SQ-22536 100 μM, MDL-12330A 40 μM, U-73122 10 μM, L-cis-diltiazem 150 μM; for increase of the first amplitude induced by Sandalore after preincubation with gap junction blocker: HaCaT, 1-octanol 500 μM or carbenoxolone 10 μM, Sandalore 500 μM
Protocol: In the fourth application, saturation occurred at approx. 500 μM (FIG. 9d). The ECR50R value was 430 μM of Sandalore® in the first application and 112 μM of Sandalore® in the fourth application.
The Sandalore®-induced signal cascade in HaCaT cells and primary keratinocytes was pharmacologically characterized using the calcium imaging technique and specific blockers of signal cascade proteins. An investigation was first conducted in order to determine whether the calcium signals are caused by calcium inflow from the extracellular space. For this purpose, a calcium-free extracellular solution was used with a calcium chelator (EGTA) added. […] In order to investigate the role of adenylyl cyclase, the specific blockers SQ-22536 and MDL-12330A were used. […] The efficacy of the blockers was tested in this case with histamine, which activated the PLC signalling pathway (FIG. 11c). […]
In order to characterize the antagonists, HaCaT cells were first repeatedly stimulated with Sandalore® (1 mM). On the third application, costimulation (1:1) with Sandalore® and one of the antagonists took place. […] Based on this, dose-dependent characterization of inhibition was to be carried out. For this purpose, Sandalore® and the antagonists were costimulated with different concentrations.
(§2) Effect of the OR2AT4 ligand Sandalore® on intracellular calcium concentration of cultivated keratinocytes. […] 100 μM of ATP was used at the end of each measurement as a positive control stimulus. Right: Quantitative evaluation of calcium signals in 4-time application of Sandalore® (500 μM). Shown are the mean values of the individual applications including standard error. Mann-Whitney U test. *: p<0.05. C) and D): dose-dependent activation of HaCaT cells in calcium imaging experiments. Shown are the mean amplitudes including standard error at various concentrations in the first (C) and fourth (D) Sandalore® application. Number of cells measured: 0.0125 mM (39), 0.025 mM (30), 0.1 mM (46), 0.5 mM (34), 1 mM (63), 2 mM (41), 10 mM (36).
(§3) A) Representative calcium imaging traces of HaCaT cells (left) and primary keratinocytes (right) incubated with the gap junction blocker 1-octanol (500 μM) and then repeatedly stimulated with Sandalore® (500 μM, horizontal bars) (blue trace). […] 100 μM of ATP was used at the end of each measurement as a positive control stimulus. Quantitative evaluation of HaCaT cells (B) and primary keratinocytes (C) incubated with the gap junction blockers 1-octanol (500 μM) or carbenoxolone (10 μM) and then repeatedly stimulated with Sandalore® (500 μM) or Lyral (1 mM) in calcium imaging experiments. Shown are the mean values of the individual applications including standard error relative to the control measurements (Sandalore® application without blocker). Mann-Whitney U test. Number of cells measured: Sandalore®+1-octanol (HaCaT (110), keratinocytes (26)); Sandalore®+carbenoxolone: HaCaT (74); Lyral+carbenoxolone: HaCaT (43). ***: p<0.001.
Pharmacological characterization of Sandalore®-induced signal cascade in human keratinocytes. A)-D). Shown are representative calcium imaging traces of primary keratinocytes in the presence of a blocker (blue). The horizontal bars correspond to the application times. 100 μM of ATP was used at the end of each measurement as a positive control stimulus. A) Measurement with calcium-free extracellular solution (+10 mM EGTA). B) Measurement with the adenylyl cyclase blocker SQ-22536 (100 μM). C) Use of the phospholipase-C blocker U-73122 (10 μM). 100 μM of histamine was taken as a positive control. D) Measurement with the CNG channel blocker L-cis-diltiazem (150 μM). E) Overview of pharmacological measurement of HaCaT cells and primary keratinocytes (Kera). The mean amplitudes relative to the control measurements (dashed line) are indicated. MDL-12330A (40 μM). […]

primary keratinocytes = experiment: Calcium imaging in primary keratinocytes; format: cell-based, human; conditions: for effect of blocker on Sandalore-induced calcium signals: primary keratinocytes, EGTA 10 mM calcium-free, SQ-22536 100 μM, MDL-12330A 40 μM, U-73122 10 μM, L-cis-diltiazem 150 μM
Text: The Sandalore®-induced signal cascade in HaCaT cells and primary keratinocytes was pharmacologically characterized using the calcium imaging technique and specific blockers of signal cascade proteins. An investigation was first conducted in order to determine whether the calcium signals are caused by calcium inflow from the extracellular space. For this purpose, a calcium-free extracellular solution was used with a calcium chelator (EGTA) added. […] In order to investigate the role of adenylyl cyclase, the specific blockers SQ-22536 and MDL-12330A were used. […] The efficacy of the blockers was tested in this case with histamine, which activated the PLC signalling pathway (FIG. 11c).
as §2, §3
Pharmacological characterization of Sandalore®-induced signal cascade in human keratinocytes. A)-D). Shown are representative calcium imaging traces of primary keratinocytes in the presence of a blocker (blue). The horizontal bars correspond to the application times. 100 μM of ATP was used at the end of each measurement as a positive control stimulus. A) Measurement with calcium-free extracellular solution (+10 mM EGTA). B) Measurement with the adenylyl cyclase blocker SQ-22536 (100 μM). C) Use of the phospholipase-C blocker U-73122 (10 μM). 100 μM of histamine was taken as a positive control. D) Measurement with the CNG channel blocker L-cis-diltiazem (150 μM). E) Overview of pharmacological measurement of HaCaT cells and primary keratinocytes (Kera). The mean amplitudes relative to the control measurements (dashed line) are indicated. MDL-12330A (40 μM). EGTA: calcium-free Ringer (HaCaT n=46, Kera n=52), SQ: SQ-22536 (HaCaT n=60, Kera n=26), MDL: MDL-12330A (HaCaT n=69, Kera n=24), U-73122 (HaCaT n=41, Kera n=25), L-cis-D.: L-cis-diltiazem (HaCaT n=41, Kera n=25). Mann-Whitney U test. ***: p<0.001. F) Determination of the cAMP contents of HaCaT cells after stimulation with Sandalore® by means of cAMP-Glo™ assays. The dots show the mean cAMP content including standard error after 10-minute Sandalore® stimulation (1 μM-10,000 μM). Significance was determined between HaCaT cells stimulated with Sandalore® and stimulated with an equivalent volume of DMSO (0.2%). Kruskal-Wallis Test with multiple comparison; n=3 experiments. *: p<0.05.

CC1(CO)CC1CC1CC2CC2(C)C1(C)C (stereo not drawn) [Javanol]
response rate of the Hana3A cells relative to the Ringer control [1]: only Brahmanol showed an increased response rate | activation of OR2AT4 in the luciferase assay [2]: no increased activation of OR2AT4

CC(C)(O)CCCC1=CCC(C=O)CC1 (stereo not drawn) [Lyral]
odorant-induced calcium signals in skin cells (HaCaT cells; Lyral 1 mM): induces calcium signals in skin cells

CC(C)CCCC(C)(C)O [dimetol]
effect on Sandalore-induced calcium signals in coapplication ([1]; coapplication with Sandalore 1:1, 1 mM respectively): no effect | effect of the odorant alone on the Hana3A cells ([1]; odorant alone, 1 mM): no effect | effect on Sandalore-induced calcium signals on coapplication (HaCaT cells; third application, costimulation 1:1 with Sandalore 1 mM): only slightly reduced

Cl.c1ccc(C2CCCC2NC2=NCCCCCCCCCCC2)cc1 (stereo not drawn) [MDL-12330A]
effect of blocker on Sandalore-induced calcium signals (primary keratinocytes): significant reduction | effect of blocker on Sandalore-induced calcium signals (HaCaT cells): significant reduction

COc1ccc2c(c1)CC[C@@H]1[C@@H]2CC[C@]2(C)[C@@H](NCCCCCCN3C(=O)C=CC3=O)CC[C@@H]12 [U-73122]
effect of blocker on Sandalore-induced calcium signals (primary keratinocytes): no effect | effect of blocker on Sandalore-induced calcium signals (HaCaT cells): no effect

COc1ccc([C@H]2Sc3ccccc3N(CCN(C)C)C(=O)[C@H]2OC(C)=O)cc1 (relative stereo) [L-cis-diltiazem]
effect of blocker on Sandalore-induced calcium signals (primary keratinocytes): significantly reduced | effect of blocker on Sandalore-induced calcium signals (HaCaT cells): significantly reduced

CCCCCCCCO [1-octanol]
increase of the first amplitude induced by Sandalore after preincubation with gap junction blocker (primary keratinocytes; keratinocytes, 1-octanol 500 μM, Sandalore 500 μM): ~1000% | increase of the first amplitude induced by Sandalore after preincubation with gap junction blocker (HaCaT cells): approx. 400%

CC1=CCC(/C=C\C(C)C(C)O)C1(C)C (stereo not drawn) [Ebanol]
response rate of the Hana3A cells relative to the Ringer control [1]: only Brahmanol showed an increased response rate

Nc1ncnc2c1ncn2C1CCCO1 (stereo not drawn) [SQ-22536]
effect of blocker on Sandalore-induced calcium signals (primary keratinocytes): significant reduction | effect of blocker on Sandalore-induced calcium signals (HaCaT cells): significant reduction

O=C(O)CN(CCOCCOCCN(CC(=O)O)CC(=O)O)CC(=O)O [EGTA]
effect of blocker on Sandalore-induced calcium signals (primary keratinocytes): significantly reduced | effect of blocker on Sandalore-induced calcium signals (HaCaT cells): significantly reduced

CC1(C)[C@@H](OC(=O)CCC(=O)O)CC[C@]2(C)[C@H]3C(=O)C=C4[C@@H]5C[C@@](C)(C(=O)O)CC[C@]5(C)CC[C@@]4(C)[C@]3(C)CC[C@@H]12 [carbenoxolone]
increase of the first amplitude induced by Sandalore after preincubation with gap junction blocker (HaCaT cells): the same result | effect on the Lyral-induced response pattern (HaCaT cells; pre-incubation with blocker 10 μM, Lyral 1 mM): No effect
